From US20260234124A1, “Substituted Pyrazolyl-Pyridinyl Compounds as Ligand Directed Degraders of IRAK3” (Celgene Corporation, priority 2022, published 2026)

How the values were obtained:
IRAK3-ePL = target: T1, IRAK3-ePL (Homo sapiens, UniProt Q9Y616); assay: IRAK3-ePL overexpressing degradation assay; format: cell-based; settings: IRAK3-ePL Lenti-X 293T CRBN/GSPT1 G575N cells, overnight incubation, top dose 10 μM
T1 construct: expressed in transfected cells; host or cells: 293T CRBN OE/GSPT1 G575N KI cells, lentiviral transduction, puromycin selection
Protocol: Example B1. IRAK3-ePL Overexpressing Degradation Assay
Stable cell lines were generated by the following protocol. 3×10^5 Lenti-X 293T cells (Clonetech) were plated in 0.8 mL of media in a 12-well plate and incubated overnight at 37° C./5% CO2. Packaging plasmid (0.4 μg, pMD), envelope plasmid (0.4 μg, pSP), and lentiviral transfer IRAK3-ePL plasmid (0.8 μg, IRAK3 sequence NM_007199.3) were mixed in 0.1 mL of Opti-MEM and incubated for 5 min. Simultaneously, 2.4 μL of Lipofectamine 2000 (Invitrogen) was added to 0.1 mL of Opti-MEM (Gibco) and incubated for 5 min. The plasmid DNA and lipofectamine were combined and the mixture was allowed to incubate for 20 min. DNA:Lipofectamine Opti-MEM mixtures were then added to previously plated cells dropwise and the cells were incubated for ~16 h at 37° C./5% CO2. Following incubation, the media was removed and 1.2 mL of fresh media was added per well. Lenti-X 293T cells were incubated for ~30 h at 37° C./5% CO2. […] Following incubation, media was removed from the Lenti-X 293T wells and passed through a […]. Part of the viral supernatant was used to transduce cells and the rest was stored at −80° C. Viruses were then added individually (0.5 mL virus) to each well of the 293T^CRBN OE/GSPT1 G575N KI cells, followed by addition of polybrene (10 mg/mL Millipore) to each well at a final concentration of 5.0 μg/mL. Cells were incubated for ~24 h at 37° C./5% CO2. After aspirating media off plates, cells were washed with DPBS, trypsinized and plated in a 10 cm dish in 15 mL of media and 1 μg/mL puromycin. Following incubation of cells for ~72 h at 37° C./5% CO2, media was aspirated off plates, and cells were washed with DPBS and trypsinized. The cells were plated in a 15 cm dish in 40 mL of media with 1.0 μg/mL Puromycin (Gibco) and incubated for ~72 h at 37° C./5% CO2. Following incubation, media was removed and cells were washed with DPBS and trypsinized. The majority of cells were resuspended in Invitrogen freezing media and stored away (~6-8×10^6 cells/vial).
IRAK3-ePL cellular dose response curve degradation assays were performed by the following protocol. Compounds to be tested were dispensed into a white 384-well tissue-culture treated plate using an acoustic liquid handler. Dilutions were prepared based on a 25 μL assay volume in duplicate 10 point 3-fold serial dilutions starting with a 10 μM dose. Negative control wells were included, which only contain 0.2% DMSO to calculate 100% signal. Positive control wells containing 30 μM Ataluren (luciferase inhibitor) were included to calculate the background signal level. All wells were backfilled to a final DMSO concentration of 0.2% to ensure DMSO uniformity across wells. IRAK3-ePL expressing cells (IRAK3-ePL Lenti-X 293T^CRBN/GSPT1 G575N) were washed, trypsinized, counted, and resuspended in fresh DMEM (Gibco) to give a cell concentration of 200,000 cells/mL. 25 μL of cells (5,000 cells/well) were dispensed into the wells of the 384-well plate prespotted with compounds in the previous step and incubated overnight at 37° C./5% CO2. Following incubation, the 384-well plate was taken out of the incubator and left at room temperature for 30 min. InCELL hunter reagent was prepared according to manufacturer's instructions (EA reagent, lysis buffer, and substrate reagent in a 1:1:4 ratio, Cat #96-0002, DiscoverX), which was added to the 384-well plate 25 μL per well. Following the incubation of the plate for 1 h at room temperature, the luminescence signal was read using a ViewLux plate reader. Data was processed and analyzed in ActivityBase software. In short, the average luminescence values of the positive control wells were subtracted from the rest of the wells for background correction, and all luminescence values were normalized to the DMSO control wells. The average value of the DMSO control wells was set to equal 100% of the relative IRAK3-ePL protein levels. […]

IRAK3 = target: T2, IRAK3 (Homo sapiens, UniProt Q9Y616); assay: IRAK endogenous HTRF degradation assay (Total-IRAK3 HTRF kit); format: cell-based; design: IRAK Endogenous HTRF Degradation Assay; endogenous in cells; settings: endogenous IRAK3, overnight incubation; % Dmax = 100 − Ymin
T2 sequence (Q9Y616 1-596): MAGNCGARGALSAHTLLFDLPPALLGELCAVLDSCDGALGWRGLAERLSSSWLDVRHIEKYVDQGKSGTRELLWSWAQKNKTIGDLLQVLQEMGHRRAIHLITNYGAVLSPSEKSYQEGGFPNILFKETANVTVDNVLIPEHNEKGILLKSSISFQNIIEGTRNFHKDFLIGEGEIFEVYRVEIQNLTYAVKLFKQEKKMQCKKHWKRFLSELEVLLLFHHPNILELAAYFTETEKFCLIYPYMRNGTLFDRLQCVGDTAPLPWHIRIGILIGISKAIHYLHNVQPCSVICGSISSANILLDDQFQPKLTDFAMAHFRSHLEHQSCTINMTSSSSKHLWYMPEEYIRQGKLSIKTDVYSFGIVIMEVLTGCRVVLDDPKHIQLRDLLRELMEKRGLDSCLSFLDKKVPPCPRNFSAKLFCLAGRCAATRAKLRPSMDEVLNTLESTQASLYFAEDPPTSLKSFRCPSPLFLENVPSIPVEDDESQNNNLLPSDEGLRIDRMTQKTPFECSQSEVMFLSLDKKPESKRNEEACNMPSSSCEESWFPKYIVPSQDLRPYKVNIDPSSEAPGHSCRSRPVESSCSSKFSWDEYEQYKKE
Protocol: Example B2. IRAK Endogenous HTRF Degradation Assay
Cells (~50k) were plated in Cisbio 96-well low volume white plates (Cisbio: cat #66PL96005). Compounds were dissolved in DMSO and a 3-fold serial dilution was performed using a TECAN D300E. Cells were incubated with the compound overnight. Total-IRAK3 HTRF kit from Cisbio was used for degradation analysis (Cisbio: 63ADK101PEH). Cryptate and D2 antibodies were diluted in Detection buffer as per manufacturers recommendation. Then 2 μL of each solution was added to 16 μL lysate. Buffer control (lysis buffer detection buffer), Cryptate control (lysis buffer+cryptate antibody+detection buffer), and Negative control (lysis buffer+cryptate antibody+D2 antibody) were made as per manufacturers recommendation. Post incubation with antibodies the HTRF signal was measured using a Perkin Elmer Envision reader and the HTRF signal was calculated using formula: (Emission at 665 nm/Emission at 615 nm)*10,000. All HTRF values were normalized to the average value of DMSO. The average value of the DMSO control wells were set to equal 100% of the relative IRAK3 protein levels. Normalized luminescence values were plotted on a graph as a function of compound concentration. Compound concentration was plotted on the x-axis and the corresponding normalized IRAK3 protein levels on the y-axis. The EC50 value (the half-maximum effective concentration) of a compound for the degradation of the IRAK3 was calculated using a four-parameter logistic model (sigmoidal dose-response model) (FIT=(A+{(B−A)/1+[(C/x)D]})) where C is the inflection point (EC50), D is the […], and A and B are the low and high limits of the fit, respectively). The Ymin was calculated by determining the lowest percentage of target protein remaining following compound treatment. Dmax was calculated from Ymin (% Dmax=100−Ymin).
Using these assays, IC50, Dmax, EC50, and DC50 values of the following compounds were determined. Dmax is defined as the maximum percent degradation achieved and DC50 is the concentration at which 50% degradation is achieved.

Dmax (IRAK3-ePL; HEK-293T, maximum percentage loss of target protein): 23%
DC50 (IRAK3-ePL; read-out: IRAK3 ePL degradation EC50): > 10 µM
Dmax (IRAK3): 34%
SMILES: Cc1ncsc1-c1ccc(CNC(=O)[C@@H]2C[C@@H](O)CN2C(=O)[C@@H](NC(=O)COCCOCCOCCOCCOCCN2CCC(n3cc(-c4cnc(N)c(O[C@H](C)c5c(Cl)ccc(F)c5Cl)c4)cn3)CC2)C(C)(C)C)cc1 [Compound 5, (2S,4R)-1-((S)-20-(4-(4-(6-amino-5-((R)-1-(2,6-dichloro-3-fluorophenyl)ethoxy)pyridin-3-yl)-1H-pyrazol-1-yl)piperidin-1-yl)-2-(tert-butyl)-4-oxo-6,9,12,15,18-pentaoxa-3-azaicosanoyl)-4-hydroxy-N-(4-(4-methylthiazol-5-yl)benzyl)pyrrolidine-2-carboxamide]
